Values joined by “and” are separate entries in the source; they are usually repeats but may differ in a detail not shown here. Equal values may be shown once.
System: outpatients with probable AD
Assay: Pharmacogenetic analysis of ADAS-Cog response to rivastigmine by ApoE ε4 carrier status in Phase III trials ENA 713 B351 and ENA 713 B352
Assay type: in vivo, human
Set-up: key to mean of change from baseline in ADAS-Cog score at end of study: change from baseline in ADAS-Cog score points
Conditions: for response to treatment (non-deterioration, Table 7), share of individuals: rivastigmine greater than or equal to 6 mg; for 4-point improvement in the ADAS-Cog score (number of individuals) / Deterioration in the ADAS-Cog score (number of individuals) / No 4-point improvement in the ADAS-Cog score (number of individuals) / Non-deterioration in the ADAS-Cog score (number of individuals): 26 weeks
Procedure: A pharmacogenetic study of the effect of a patients ApoE ε4 genotype on the response to the ChEI, rivastigmine was conducted. Rivastigmine tartrate is an inhibitor of both AChE and BuChE and is commercially available under the name EXELON™ from Novartis Pharmaceuticals Corporation, East Hanover, N.J. Individuals In the trial were divided into treatment groups depending on the dose they received, namely <6 mg/day of rivastigmine, 6-12 mg/day of rivastigmine and placebo. Each treatment group was analyzed separately. Individuals in each treatment group were then classified as ApoE ε4 carriers or non-carriers based on the genotype data. A significant association (P=0.0071) between the ApoE ε4 carriers and the greater than 4 point improvement was found in the 6-12 mg group. In contrast, the association of the ApoE ε4 allele with non-deterioration in the study was not significant (P=0.1172) in the same group.
The Phase III clinical trials ENA 713 B352 and ENA 713 B351 are multicenter, double-blind, placebo-controlled, parallel-group study to examine the effect of rivastigmine in outpatients with probable AD. Both trials are conducted over a period of 26 weeks. ENA 713 B351 has 4 treatment arms with comprising of rivastigmine 3 mg/day, rivastigmine 6 mg/day, rivastigmine 9 mg/day or placebo. The initial dose-titration phase (Weeks 1-12) was followed by a fixed-dose phase (Week 13-26), for a total randomized double-blind treatment period of 26 weeks. ENA 713 B352 has 3 treatment arms with comprising of rivastigmine 1-4 mg/day, rivastigmine 6-12 mg/day, and placebo. The initial dose-titration phase (Weeks 1-7) was followed by a fixed-dose phase (Week 8-26), for a total randomized, double-blind treatment period of 26 weeks. The blood samples were handled by the Roskamp Institute, University of South Florida.
Individuals in the trial were classified as being responders if the final change from their baseline ADAS-COG scores is less than or equal to 4-points. A Fisher's Exact test was used to find an association between ApoE genotype and response.
Individuals in the trial were classified as being responders if the final change from their baseline ADAS-Cog scores is less than or equal to 0 points. A Fisher's Exact test was used to find an association between ApoE genotype and response.
Treatment differences in the ApoE ε4 and non-ApoE ε4 carriers were also analyzed. Treatment differences being measured as the 4-point decrease and the non-deterioration classes. An exact Cochran-Armitage test for trend is used to determine if the numbers of responders increase with dose of rivastigmine among each genotype group.
The trial population was divided into three groups based on the treatment they received. The three groups are placebo, rivastigmine <6 mg/day and rivastigmine ≧6 mg/day. All analyses were conducted within each group separately. The genotype data for the ApoE were re-coded for the presence or absence of the […]. The re-coded genotype data were used as the categorical variable.
A non-parametric analysis of variance (ANOVA) model was used for the analysis. Change from baseline in the ADAS-Cog score is used as the dependent variable.

[1] = rivastigmine <6 mg/day, No ε4 allele
[2] = rivastigmine <6 mg/day, ε4 allele carriers
[3] = rivastigmine ≧6 mg/day, No ε4 allele
[4] = rivastigmine ≧6 mg/day, No ε4 allele, listed as Rivastigmine
[5] = rivastigmine ≧6 mg/day, ε4 allele carriers

CCN(C)C(=O)Oc1cccc([C@H](C)N(C)C)c1 [rivastigmine]
response to treatment (non-deterioration, Table 7), share of individuals (ApoE ε4 carriers): 65% | mean of change from baseline in ADAS-Cog score at end of study (Rivastigmine <6 mg/day, No ε4 allele): 1.444 | mean of change from baseline in ADAS-Cog score at end of study (Rivastigmine <6 mg/day, ε4 allele): 1.293 | mean of change from baseline in ADAS-Cog score at end of study (Rivastigmine ≧6 mg/day, No ε4 allele, listed as Rivastigmine): 0.39 | mean of change from baseline in ADAS-Cog score at end of study (Rivastigmine ≧6 mg/day, ε4 allele): −1.74 | response to treatment (non-deterioration, Table 7), share of individuals (non-ApoE ε4 carriers): 48.7% | 4-point improvement in the ADAS-Cog score (number of individuals) [1]: 4 | Deterioration in the ADAS-Cog score (number of individuals) [1]: 24 | No 4-point improvement in the ADAS-Cog score (number of individuals) [1]: 32 | Non-deterioration in the ADAS-Cog score (number of individuals) [1]: 12 | No 4-point improvement in the ADAS-Cog score (number of individuals) (rivastigmine <6 mg/day, No ε4 allele, listed as Rivastigmine): 37 | 4-point improvement in the ADAS-Cog score (number of individuals) [2]: 12 | Deterioration in the ADAS-Cog score (number of individuals) [2]: 63 | No 4-point improvement in the ADAS-Cog score (number of individuals) [2]: 83 | Non-deterioration in the ADAS-Cog score (number of individuals) [2]: 32 and 12 | 4-point improvement in the ADAS-Cog score (number of individuals) [3]: 4 | Deterioration in the ADAS-Cog score (number of individuals) [3]: 21 | No 4-point improvement in the ADAS-Cog score (number of individuals) [3]: 37 | Non-deterioration in the ADAS-Cog score (number of individuals) [3]: 20 | 4-point improvement in the ADAS-Cog score (number of individuals) [4]: 26 | No 4-point improvement in the ADAS-Cog score (number of individuals) [4]: 54 | 4-point improvement in the ADAS-Cog score (number of individuals) [5]: 26 | Deterioration in the ADAS-Cog score (number of individuals) [5]: 28 | No 4-point improvement in the ADAS-Cog score (number of individuals) [5]: 54 | Non-deterioration in the ADAS-Cog score (number of individuals) [5]: 52
